From US20260297092A1, “PYRAZOLOPYRIMIDINE DERIVATIVES AS INHIBITORS OF NLRP3” (Takeda Pharmaceutical Company Limited, priority 2023, published 2026)

Columns and labels:
[1] = tested on: NLRP3 inflammasome (IL-1β production in THP-1 cells); assay: IL-1β TR-FRET Assay (percentage of inhibition at 300 nM, 6 μM or 10 μM); type: cell-based, human; conditions: LPS priming, ATP activation; for inhibition at 10 µM / inhibition at 0.3 µM / inhibition at 6 µM: Homo sapiens; for inhibition at 10 µM: THP-1, 10 μM, read-out: IL-1β inhibitory rate at 10 μM (%); for inhibition at 0.3 µM: THP-1, 300 nM, read-out: IL-1β inhibitory rate at 300 nM (%); for inhibition at 6 µM: THP-1, 6 μM, read-out: IL-1β inhibitory rate at 6 μM (%)
Method in brief: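 THP-1 cells were differentiated with 25 ng/mL IFN-γ for 24 h, primed with 50 ng/mL LPS in serum-free medium for 24 h, then given compound for 30 min before 20 mM ATP for 2 h. Supernatant IL-1β was measured by HTRF after 16-24 h at room temperature. Inhibition was normalized between DMSO (high) and 3 μM MCC-950 (low).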

[2] = tested on: TNF-α (NF-κB pathway, THP-1 cells); assay: TNF-α Assay (IC50); type: cell-based, human; conditions: 600 ng/mL LPS, 3 hours
Experimental: TNF-α Assay (Reported as IC50)
Monocytic THP-1 cells (ATCC: TIB-202) were maintained in accordance with the provider's instructions in RPMI media (Life Technologies, Cat #A10491-01); RPMI was supplemented with 10% heat inactivated fetal bovine serum (Hyclone Cat #SH30396.03). The cells were differentiated into macrophages by the addition of 25 ng/mL IFN-7 for 24 hours at 37° C./5% CO2. Media was exchanged with fresh media with no FBS. The cells were plated at 40,000 cells per well in 384-well flat-bottom cell culture plates (Costar 3764) containing compounds (added in 1:1000) in a 1:3.16 serial dilution series in DMSO and were incubated for 30 minutes at 37° C./5% CO2. The NF-κB pathway was activated with the addition of 600 ng/mL LPS and the cells were incubated for 3 hours at 37° C./5% CO2. At the end of the incubation period, supernatant ([…]) was removed, and TNF-alpha were monitored using an ELISA (Human TNF-α ELISA, R&D systems, Cat #DY210) according to the manufacturer's instructions. 100% inhibition is determined with positive control, TPCA-1.
The IC50 values in the TNF-α assay were calculated from a plot of percentage of inhibition versus the inhibitor concentration by a logistics curve fit according to: Y=[Bottom+(Top−Bottom)]/(1+10^[(Log IC50−X)·Hill Slope], where Y was the […] at the inhibitor concentration, X, “Bottom” was the lowest inhibition value, i.e., 0%, “Top” was the maximum inhibition value, i.e., 100%, and the “Hill Slope” described the slope of the sigmoidal curve between the “Bottom” and “Top” values. The curve fitting was conducted with internally developed software.

Cc1cc(Cl)ccc1-n1cc2c(=O)[nH]c(C3CCCN(C)C3)nc2n1 (stereo not shown) [Example 102, 2-(4-chloro-2-methylphenyl)-6-(1-methylpiperidin-3-yl)-2,5-dihydro-4H-pyrazolo[3,4-d]pyrimidin-4-one]
inhibition at 10 µM [1]: 97% | IC50 ([2]; Homo sapiens): > 30 µM

CCOc1nc2nn(-c3c(C)cc(C4CC4)cc3C(F)F)cc2c(=O)[nH]1 [Example 216, 2-[4-cyclopropyl-2-(difluoromethyl)-6-methylphenyl]-6-ethoxy-2,5-dihydro-4H-pyrazo lo[3,4-d]pyrimidin-4-one]
inhibition at 0.3 µM [1]: 104% | IC50 ([2]; Homo sapiens): > 30 µM

CCOc1nc2nn(-c3c(F)cc(C4CC4)cc3OC(F)F)cc2c(=O)[nH]1 [Example 107, 2-[4-cyclopropyl-2-(difluoromethoxy)-6-fluorophenyl]-6-ethoxy-2,5-dihydro-4H-pyrazolo[3,4-d]pyrimidin-4-one]
inhibition at 0.3 µM [1]: 99% | IC50 ([2]; Homo sapiens): > 30 µM

CCOc1nc2nn(-c3ccc(C(F)(F)F)cc3C)cc2c(=O)[nH]1 [Example 69, 6-ethoxy-2-[2-methyl-4-(trifluoromethyl)phenyl]-2,5-dihydro-4H-pyrazolo[3,4-d]pyrimidin-4-one]
inhibition at 0.3 µM [1]: 100% | IC50 ([2]; Homo sapiens): > 30 µM

Cc1cc(C)c(-n2cc3c(=O)[nH]c(C4CCCCO4)nc3n2)c(O)c1C (stereo not shown) [Example 81, 2-(2-hydroxy-3,4,6-trimethylphenyl)-6-(oxan-2-yl)-2,5-dihydro-4H-pyrazolo[3,4-d]pyrimidin-4-one]
inhibition at 0.3 µM [1]: 97% | IC50 ([2]; Homo sapiens): > 30 µM

CCOc1nc2nn(-c3ccc(C4CC4)cn3)cc2c(=O)[nH]1 [Example 130, 2-(5-cyclopropylpyridin-2-yl)-6-ethoxy-2,5-dihydro-4H-pyrazolo[3,4-d]pyrimidin-4-one]
inhibition at 10 µM [1]: 37% | IC50 ([2]; Homo sapiens): > 30 µM

CCOc1nc2nn(-c3c(C)cc(C)cc3C(F)F)cc2c(=O)[nH]1 [Example 159, 2-[2-(difluoromethyl)-4,6-dimethylphenyl]-6-ethoxy-2,5-dihydro-4H-pyrazolo[3,4-d]pyrimidin-4-one]
inhibition at 0.3 µM [1]: 103% | IC50 ([2]; Homo sapiens): > 30 µM

Cc1cc(C)c(-n2cc3c(=O)[nH]c(-c4ccccc4)nc3n2)c(O)c1 [Example 5, 2-(2-hydroxy-4,6-dimethylphenyl)-6-phenyl-2,5-dihydro-4H-pyrazolo[3,4-d]pyrimidin-4-one]
inhibition at 0.3 µM [1]: 99% | IC50 ([2]; Homo sapiens): > 30 µM

Cc1cc(C2CC2)cc(C)c1-n1cc2c(=O)[nH]c([C@@]3(F)CCOC3)nc2n1 [Example 289, 2-(4-cyclopropyl-2,6-dimethylphenyl)-6-[(3R)-3-fluorooxolan-3-yl]-2,5-dihydro-4H-pyrazolo[3,4-d]pyrimidin-4-one or 2-(4-cyclopropyl-2,6-dimethylphenyl)-6-[(3S)-3-fluorooxolan-3-yl]-2,5-dihydro-4H-pyrazolo[3,4-d]pyrimidin-4-one]
IL-1β inhibitory rate at 6 μM (%) ([1]; 6 μM): 101% | IC50 [2]: > 30 µM

COC(C)c1nc2nn(-c3c(C)cc(C)cc3O)cc2c(=O)[nH]1 (stereo not shown) [Example 52, 2-(2-hydroxy-4,6-dimethylphenyl)-6-(1-methoxyethyl)-2,5-dihydro-4H-pyrazolo[3,4-d]pyrimidin-4-one]
inhibition at 0.3 µM [1]: 95% | IC50 ([2]; Homo sapiens): > 30 µM

Cc1cc(-c2nc3nn(-c4c(C)cc(C5CC5)cc4C)cc3c(=O)[nH]2)on1 [Example 275, 2-(4-cyclopropyl-2,6-dimethylphenyl)-6-(3-methyl-1,2-oxazol-5-yl)-2,5-dihydro-4H-pyrazolo[3,4-d]pyrimidin-4-one]
inhibition at 6 µM [1]: 101% | IC50 ([2]; Homo sapiens): 2.26 µM

Cc1cc(C)c(-n2cc3c(=O)[nH]c(-c4ccccc4Cl)nc3n2)c(O)c1 [Example 45, 6-(2-chlorophenyl)-2-(2-hydroxy-4,6-dimethylphenyl)-2,5-dihydro-4H-pyrazolo[3,4-d]pyrimidin-4-one]
inhibition at 0.3 µM [1]: 100% | IC50 ([2]; Homo sapiens): > 30 µM

O=c1[nH]c([C@@H]2COCCO2)nc2nn(-c3c(F)cc(C4CC4)cc3C(F)F)cc12 (single isomer, unassigned) [Example 313, 2-[4-cyclopropyl-2-(difluoromethyl)-6-fluorophenyl]-6-[(2S)-1,4-dioxan-2-yl]-2,5-dihydro-4H-pyrazolo[3,4-d]pyrimidin-4-one or 2-[4-cyclopropyl-2-(difluoromethyl)-6-fluorophenyl]-6-[(2R)-1,4-dioxan-2-yl]-2,5-dihydro-4H-pyrazolo[3,4-d]pyrimidin-4-one]
inhibition at 6 µM [1]: 104% | IC50 ([2]; Homo sapiens): > 30 µM

Cc1cc(C)c(-n2cc3c(=O)[nH]c(-c4ccncn4)nc3n2)c(O)c1 [Example 2, 2-(2-hydroxy-4,6-dimethylphenyl)-6-(pyrimidin-4-yl)-2,5-dihydro-4H-pyrazolo[3,4-d]pyrimidin-4-one]
inhibition at 0.3 µM [1]: 100% | IC50 ([2]; Homo sapiens): > 30 µM

CCOc1nc2nn(-c3ccc(C)cc3O)c(Cl)c2c(=O)[nH]1 [Example 31, 3-chloro-6-ethoxy-2-(2-hydroxy-4-methylphenyl)-2,5-dihydro-4H-pyrazolo[3,4-d]pyrimidin-4-one]
inhibition at 0.3 µM [1]: 99% | IC50 ([2]; Homo sapiens): > 30 µM

Cc1cc(C)c(-n2cc3c(=O)[nH]c(CC(C)(C)C)nc3n2)c(O)c1 [Example 68, 6-(2,2-dimethylpropyl)-2-(2-hydroxy-4,6-dimethylphenyl)-2,5-dihydro-4H-pyrazolo[3,4-d]pyrimidin-4-one]
inhibition at 0.3 µM [1]: 97% | IC50 ([2]; Homo sapiens): 0.279 µM

Cc1cc(C)c(-n2cc3c(=O)[nH]c(CC4CCCCO4)nc3n2)c(O)c1 (stereo not shown) [Example 67, 2-(2-hydroxy-4,6-dimethylphenyl)-6-[(oxan-2-yl)methyl]-2,5-dihydro-4H-pyrazolo[3,4-d]pyrimidin-4-one]
inhibition at 0.3 µM [1]: 98% | IC50 ([2]; Homo sapiens): > 30 µM

CCOc1nc2nn(-c3c(C)cc(OC(F)(F)F)cc3F)cc2c(=O)[nH]1 [Example 125, 6-ethoxy-2-[2-fluoro-6-methyl-4-(trifluoromethoxy)phenyl]-2,5-dihydro-4H-pyrazolo[3,4-d]pyrimidin-4-one]
inhibition at 0.3 µM [1]: 100% | IC50 ([2]; Homo sapiens): > 30 µM

CCOc1nc2nn(-c3c(C)cc(C)cc3Br)cc2c(=O)[nH]1 [Example 118, 2-(2-bromo-4,6-dimethylphenyl)-6-ethoxy-2,5-dihydro-4H-pyrazolo[3,4-d]pyrimidin-4-one]
inhibition at 0.3 µM [1]: 101% | IC50 ([2]; Homo sapiens): > 30 µM

CCOc1nc2nn(-c3c(C)ccc(C)c3O)cc2c(=O)[nH]1 [Example 16, 6-ethoxy-2-(2-hydroxy-3,6-dimethylphenyl)-2,5-dihydro-4H-pyrazolo[3,4-d]pyrimidin-4-one]
inhibition at 0.3 µM [1]: 101% | IC50 ([2]; Homo sapiens): > 30 µM

COCc1nc2nn(-c3c(C)cc(C4CC4)cc3C)cc2c(=O)[nH]1 [Example 166, 2-(4-cyclopropyl-2,6-dimethylphenyl)-6-(methoxymethyl)-2,5-dihydro-4H-pyrazolo[3,4-d]pyrimidin-4-one]
inhibition at 0.3 µM [1]: 103% | IC50 ([2]; Homo sapiens): > 30 µM

Cc1cc(C)c(-n2cc3c(=O)[nH]c(OCC(F)(F)F)nc3n2)c(O)c1 [Example 55, 2-(2-hydroxy-4,6-dimethylphenyl)-6-(2,2,2-trifluoroethoxy)-2,5-dihydro-4H-pyrazolo[3,4-d]pyrimidin-4-one]
inhibition at 0.3 µM [1]: 98% | IC50 ([2]; Homo sapiens): > 30 µM

Cc1cc(C2CC2)cc(C)c1-n1cc2c(=O)[nH]c(COC(F)(F)F)nc2n1 [Example 202, 2-(4-cyclopropyl-2,6-dimethylphenyl)-6-[(trifluoro-methoxy)methyl]-2,5-dihydro-4H-pyrazolo[3,4-d]pyrimidin-4-one]
inhibition at 0.3 µM [1]: 97% | IC50 ([2]; Homo sapiens): > 30 µM

COCc1nc2nn(-c3c(C)cc(C4CC4)cc3C(F)F)cc2c(=O)[nH]1 [Example 321, 2-[4-cyclopropyl-2-(difluoromethyl)-6-methylphenyl]-6-(methoxymethyl)-2,5-dihydro-4H-pyrazolo[3,4-d]pyrimidin-4-one]
inhibition at 6 µM [1]: 103% | IC50 ([2]; Homo sapiens): > 30 µM

CCOc1nc2nn(-c3c(F)cc(C4CC4)cc3C(O)C(F)(F)F)cc2c(=O)[nH]1 (racemic) [Example 192, 2-[4-cyclopropyl-2-fluoro-6-(2,2,2-trifluoro-1-hydroxyethyl)phenyl]-6-ethoxy-2,5-dihydro-4H-pyrazolo[3,4-d]pyrimidin-4-one]
inhibition at 0.3 µM [1]: 95% | IC50 ([2]; Homo sapiens): > 30 µM

Cc1cc(C2CC2)cc(C)c1-n1cc2c(=O)[nH]c(OCC(F)F)nc2n1 [Example 285, 2-(4-cyclopropyl-2,6-dimethylphenyl)-6-(2,2-difluoroethoxy)-2,5-dihydro-4H-pyrazolo[3,4-d]pyrimidin-4-one]
inhibition at 6 µM [1]: 100% | IC50 ([2]; Homo sapiens): > 30 µM
